Experimental data reported in US7129074B2, “Nucleoside triphosphate diphosphohydrolase (NTPDase 8) and uses thereof” (Université Laval, priority 2002, dated 2006).

B1: mNTPDase8: mouse nucleoside triphosphate diphosphohydrolase 8, SEQ ID NO:1, protein extract from transfected COS-7 cells (protein)
chain: MGLSWKERVFMALLGVAAASGLTMLVLILVKAINVLLPADTKFGIVFDAGSSHTSLFVYQWPANKEKDTGVVSQALTCQIEGPGISSYTSDPTQAGESLKSCLEEALALIPQAQHPETPTFLGSTAGMRLLSQKNSSQARDILAAVSQTLSKSPVDFWGAKILAGQDEGAFGWITINYVLGMLLKYSSGQWILPEEGMLVGALDLGGASTQISFVPQGPILDQSTQVTFRLYGANYSVYTHSYLCFGRDQILNRLLAKLAQDRLSSQVAPVRHPCYHSGYQAILPLSSLYDSPCIHTTDSLNHTQNLTVEGTGDPGNCVVALRSLFNFSSCKGQKDCAFNGIYQPPVHGQFYAFSNFYYTFHFLNLTSRQSLNTVNDTVWKFCQKPWKLVEVSYPGQERWLRDYCASGLYILVLLLEGYKFSEETWPNIQFQKQAGDTDIGWTLGFMLNLTGMIPAEAPTHWRAQSYSIWTAGVVFAVLTLVAILGAAAIQIFWTQD
modifications: PEPTIDE (1)...(497) Mouse HTPDase8
B2: mNTPDase1: mouse NTPDase1 protein extract from transfected COS cells (protein, UniProt P55772 1-510, looked up)
Ectonucleoside triphosphate …: MEDIKDSKVKRFCSKNILIILGFTSILAVIALIAVGLTQNKPLPENVKYGIVLDAGSSHTNLYIYKWPAEKENDTGVVQQLEECQVKGPGISKYAQKTDEIGAYLAECMELSTELIPTSKHHQTPVYLGATAGMRLLRMESEQSADEVLAAVSTSLKSYPFDFQGAKIITGQEEGAYGWITINYLLGRFTQEQSWLSLISDSQKQETFGALDLGGASTQITFVPQNSTIESPENSLQFRLYGEDYTVYTHSFLCYGKDQALWQKLAKDIQVSSGGVLKDPCFNPGYEKVVNVSELYGTPCTKRFEKKLPFDQFRIQGTGDYEQCHQSILELFNNSHCPYSQCAFNGVFLPPLHGSFGAFSAFYFVMDFFKKVAKNSVISQEKMTEITKNFCSKSWEETKTSYPSVKEKYLSEYCFSGAYILSLLQGYNFTDSSWEQIHFMGKIKDSNAGWTLGYMLNLTNMIPAEQPLSPPLPHSTYIGLMVLFSLLLVAVAITGLFIYSKPSYFWKEAV
modifications: COS cell extract
notes: mouse NTPDase1 protein extract from transfected COS cells

Legend:
human NTPDase8 = target: T1, human NTPDase8 (Homo sapiens, UniProt Q5MY95, L62P); experiment: Activity on protein extracts from human NTPDase8 transient transfected COS-7 cells; type: biochemical; settings: substrate hydrolysis by human NTPDase8 protein extracts
T1 construct: expressed in transfected cells; host or cells: COS-7
T1 sequence (Q5MY95 1-495 L62P): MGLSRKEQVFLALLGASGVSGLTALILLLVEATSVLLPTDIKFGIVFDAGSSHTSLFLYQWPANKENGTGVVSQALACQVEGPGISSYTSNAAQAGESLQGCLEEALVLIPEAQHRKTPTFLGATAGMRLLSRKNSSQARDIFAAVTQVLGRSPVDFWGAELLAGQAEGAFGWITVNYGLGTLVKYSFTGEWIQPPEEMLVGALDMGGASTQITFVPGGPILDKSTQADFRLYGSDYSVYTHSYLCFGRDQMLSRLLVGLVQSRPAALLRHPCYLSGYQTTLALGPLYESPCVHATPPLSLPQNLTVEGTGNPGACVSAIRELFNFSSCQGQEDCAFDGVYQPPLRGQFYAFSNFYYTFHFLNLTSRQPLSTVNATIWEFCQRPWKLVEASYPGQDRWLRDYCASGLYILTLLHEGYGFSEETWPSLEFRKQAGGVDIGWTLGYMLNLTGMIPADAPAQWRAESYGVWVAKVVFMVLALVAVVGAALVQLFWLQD
Protocol: (§1) Enzyme activity in the protein fractions was determined as previously described (Sévigny et al, 1997, Biochimica Biophysica Acta 1334:73–88) Briefly, enzyme activity was measured at 37° C. in 0.5 ml of the following incubation medium: […] either with 100 mM Tris, pH 7.4 or with 100 mM MES, pH 6.4 or as indicated. Enzyme preparation was added to the incubation mixture and pre-incubated at 37° C. for 3 min. Reaction was started by the addition of 0.5 mM substrate (ATP, ADP, UTP, UDP or AMP) and stopped after 20 min by the addition of 0.125 ml of the malachite green reagent (Baykov and Evtushenko, 1988, Analytical Biochemistry 171:266–270). Activity on intact cells was carried out in similar conditions in 24 wells plates, also 40–44 h after transfection, with the addition of 145 mM NaCl to the incubation medium. The reaction was stopped by taking 0.2 ml of the reaction mixture to a new tube containing 50 μl of malachite reagent. The inorganic phosphate […] released from the hydrolysis of exogenous nucleotides was measured according to Baykov et al. (Baykov and Evtushenko, 1988, Analytical Biochemistry 171:266–270)
The activity of the protein extracts of human NTPDase8 was carried out as described previously herein and the results are shown in Table 3.

mouse NTPDase8 [1] = target: T2, mouse NTPDase8 (Mus musculus, UniProt Q8K0L2); experiment: NTPDase activity measurement (Pi release, malachite green) on protein extracts of COS-7 cells transfected with mouse NTPDase8; type: biochemical; settings: for Vmax,app / Km: substrate of NTPDase8, Woolf-Augustinsson-Hofstee plot, mean ± SEM; for Km: read-out: Km,app
T2 construct: expressed in transfected cells; host or cells: COS-7
T2 sequence (Q8K0L2 1-497): B1 chain
Protocol: COS-7 cells were transfected in 10 cm plates using Lipofectamine™ (Invitrogen), as previously described (Kaczmarek et al, 1996, JBC, 271:33116–33122). Briefly, cells were incubated for 5 h at 37° C. in DMEM in absence of foetal bovine serum (FBS) with 6 μg of plasmid DNA and 24 μl of Lipofectamine™ reagent. The reaction was stopped by adding an equal volume of DMEM containing 20% FBS and cell were harvested 40–44 h later. For protein preparation, transfected cells were washed three times with Tris-saline buffer at 4° C., harvested by scraping in 95 mM NaCl, 0.1 mM PMSF and 45 mM Tris, pH 7.5, and washed twice by 300×g centrifugation for 10 min at 4° C. Cells were resuspended in the harvesting buffer containing 10 μg/ml aprotinin and sonicated. Nucleus and cellular debris were discarded by another centrifugation as described above and the supernatants stored at −80° C. until used. Protein concentration was estimated by the Bradford microplate assay using bovine serum albumin (BSA) as a standard of reference (Bradford, 1976, Analyt. Biochem., 72:248–254).
as §1
Optimum pH was determined in the presence of 5 mM CaCl2 with the following buffers: 100 mM acetate (pH 4.0–5.5), 100 mM MES (pH 5.5–7.0), 100 mM Tris (pH 7.0–9.0) or 100 mM glycine pH (9.0–11.0). In the indicated experiments CaCl2 was substituted by MgCl2. To remove traces of divalent cations 1 mM EDTA plus 1 mM EGTA was added to the medium. One unit of enzyme activity corresponds to the release of 1 μmole Pi/min at 37° C. (LeBel et al., 1980, J. Biol. Chem. 255:1227–1233). All experiments were performed in triplicate with the appropriate controls.

mouse NTPDase8 [2] = target: T2, mouse NTPDase8; experiment: HPLC separation and quantification of nucleotides hydrolysed by mouse NTPDase8; type: biochemical
Protocol: For HPLC analysis, activity assays were performed in 5 mM CaCl2 and 100 mM MES, pH 6.4 as described above with the following modifications. Aliquots of 20 μL were taken at different time points from the enzymatic reaction and activity stopped by the addition of an equal volume of ice-cold 1 M perchloric acid. The samples were centrifuged for 5 min at 1000×g at 4° C. Supernatants were neutralized with 1 M KOH (4° C.), centrifuged for a subsequent 5 min at 1000×g and then lipids were removed by liquid-liquid extraction with n-heptane (5:1, v/v). An aliquot of 20 μL from the lipid extracted sample was applied to a column connected to a HPLC system.
Adenine nucleotides (ATP, ADP and AMP) were separated on a 15 cm×4.6 mm, 3 μm SUPELCOSIL™ LC-18-T column (Supelco, Bellefonte, Pa., USA) with a mobile phase composed of 25 mM TBA, 5 mM EDTA, 100 mM KH2PO4/K2HPO4, pH 7.0 and 2% methanol (v/v), at a flow-rate of 1 ml/min. […] Combined adenine and uridine nucleotide samples were analyzed with the latter column with a mobile phase composed of 16.7 mM TBA, 3.3 mM EDTA, 66.7 mM KH2PO4/K2HPO4, pH 7.0. The flow rate was 0.5 ml/min for the first 20 min and 1 ml/min up to 90 min. The nucleotides were detected by UV absorption at 260 nm and identified by comparison of the retention time and UV spectrum with the appropriate standards.

[3] = system: platelet aggregation in PRP; experiment: ADP-induced platelet aggregation in human PRP (optic density at 600 nm); type: cell-based; settings: 4 uM ADP; PRP preincubated 25 seconds with 250 ug mNTPDase8 or 3 ug mNTPDase1 protein extracts
Protocol: Cell membrane preparation and platelet aggregation assays were performed as described before.
PRP prepared from human donors was tested for platelet activation in the presence of exogenous ADP and protein extracts from COS cell transfected with pcDNA3.11V5-His encoding mouse NTPDase8 (mNTPDase8) or mouse (mNTPDase1) (FIG. 6). Optic density at 600 nm was recorded over a period of 8 minutes. Before the addition of 4 uM ADP, PRP was preincubated for 25 seconds with 250 ug mNTPDase8 or 3 ug mNTPDase1 protein extracts, 250 ug untransfected COS cells or without protein extract (agonist: 4 uM ADP). Note that 4 uM ADP induced high levels of platelet aggregation in control samples.

Row | Molecule | Activity (human NTPDase8) | Vmax,app (mouse NTPDase8 [1]) | Km (mouse NTPDase8 [1]) | other results
1 | Nc1ncnc2c1ncn2[C@@H]1O[C@H](COP(=O)(O)OP(=O)(O)OP(=O)(O)O)[C@@H](O)[C@H]1O [ATP] | 264 ± 7 nmols Pi/min/mg | 0.82 ± 0.02 U/mg of protein | 13 ± 6 µM | 
2 | Nc1ncnc2c1ncn2[C@@H]1O[C@H](COP(=O)(O)O)[C@@H](O)[C@H]1O [AMP] | 2 ± 0.6 nmols Pi/min/mg |  |  | hydrolysis by NTPDase8 (mouse NTPDase8 [1]; in the presence of Ca2+): did not hydrolyze
3 | O=c1ccn([C@@H]2O[C@H](COP(=O)(O)OP(=O)(O)O)[C@@H](O)[C@H]2O)c(=O)[nH]1 [UDP] | 38 ± 5 nmols Pi/min/mg | 1.08 ± 0.06 U/mg of protein | 171 ± 15 µM | remaining concentration after 120 min (mouse NTPDase8 [2]; formed from UTP incubated with NTPDase8 extracts): 140 µM
4 | O=c1ccn([C@@H]2O[C@H](COP(=O)(O)OP(=O)(O)OP(=O)(O)O)[C@@H](O)[C@H]2O)c(=O)[nH]1 [UTP] | 271 ± 35 nmols Pi/min/mg | 1.13 ± 0.02 U/mg of protein | 47 ± 1 µM | 
5 | Nc1ncnc2c1ncn2[C@@H]1O[C@H](COP(=O)(O)OP(=O)(O)O)[C@@H](O)[C@H]1O [ADP] | 55 ± 15 nmols Pi/min/mg | 0.95 ± 0.08 U/mg of protein | 41 ± 6 µM | hydrolysis after 120 min (mouse NTPDase8 [2]; formed from ATP incubated with NTPDase8 extracts): completely hydrolyzed
6 | B1 |  |  |  | inhibition of platelet aggregation [3]: 53%; activity in absence of divalent cations (mouse NTPDase8 [1]; 1 mM EDTA and 1 mM EGTA, any of the substrates tested): no activity could be detected; pH of optimal activity (mouse NTPDase8 [1]; ADPase activity, evaluated from pH 4.0 to 11.0): ~6.4; pH range in which highly active (mouse NTPDase8 [1]; ATPase and ADPase activity, evaluated from pH 4.0 to 11.0): 5.5–7.0; ratio of hydrolysis ATP/ADP (mouse NTPDase8 [1]; in the presence of Ca2+): 1.6±0.3; ratio of hydrolysis UTP/UDP (mouse NTPDase8 [1]; in the presence of Ca2+): 2.1±0.3
7 | B2 |  |  |  | inhibition of platelet aggregation [3]: 100%
